Measured values published in US11198713B2, “Agents modulating beta-catenin functions and methods thereof” (FOG PHARMACEUTICALS, INC., priority 2017, dated 2021).

Biological target: T1, full-length beta-catenin (Axin site) (Homo sapiens, UniProt P35222)
T1 construct: 15 nM full-length beta-catenin, 20 nM FITC labeled peptide in buffer
T1 sequence (P35222 1-781): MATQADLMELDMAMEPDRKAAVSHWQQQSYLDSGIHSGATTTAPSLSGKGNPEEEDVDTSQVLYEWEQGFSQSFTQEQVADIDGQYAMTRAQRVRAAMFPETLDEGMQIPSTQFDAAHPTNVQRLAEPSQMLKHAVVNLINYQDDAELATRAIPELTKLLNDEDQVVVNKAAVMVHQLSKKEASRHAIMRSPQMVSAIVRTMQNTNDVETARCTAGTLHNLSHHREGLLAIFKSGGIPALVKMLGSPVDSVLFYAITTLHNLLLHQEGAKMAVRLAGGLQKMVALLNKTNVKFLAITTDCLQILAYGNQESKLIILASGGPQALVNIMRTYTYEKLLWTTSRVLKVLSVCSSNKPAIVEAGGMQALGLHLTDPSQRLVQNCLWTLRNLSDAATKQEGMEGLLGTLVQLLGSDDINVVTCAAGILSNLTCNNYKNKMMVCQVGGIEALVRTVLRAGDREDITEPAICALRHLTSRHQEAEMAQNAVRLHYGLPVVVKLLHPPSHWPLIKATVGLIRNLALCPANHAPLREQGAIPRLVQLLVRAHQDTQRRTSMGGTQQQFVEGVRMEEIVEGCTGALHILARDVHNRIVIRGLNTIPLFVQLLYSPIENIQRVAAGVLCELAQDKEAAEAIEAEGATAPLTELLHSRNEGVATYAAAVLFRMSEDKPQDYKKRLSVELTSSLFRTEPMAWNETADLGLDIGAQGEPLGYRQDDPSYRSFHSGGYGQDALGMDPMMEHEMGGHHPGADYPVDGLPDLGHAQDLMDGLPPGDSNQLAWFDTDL
Assay: Competition fluorescence polarization assay (Axin site probe)
Format: binding
Settings: competition fluorescence polarization, Table 2; read-out: in vitro FP EC50
Outline: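 Competition FP: 15 nM full-length β-catenin pre-incubated 5 min with 20 nM FITC-labelled stapled Axin-site peptide, then titrated peptide added (3-fold series from 5 μM) for 15 min in the dark. Buffer 50 mM Tris pH 8.0, 250 mM NaCl, 2% glycerol, 0.5 mM EDTA; duplicate reads.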

| EC50 [nM] | SMILES |
| --- | --- |
| > 5000 | CC[C@H](C)[C@@H]1NC(=O)[C@](C)(NC(=O)[C@H](CCC(N)=O)NC(=O)[C@@H]2CCCN2C(C)=O)CCCCCC=CCN2CC[C@](C(=O)N[C@@H](Cc3c[nH]cn3)C(=O)N[C@H](C(=O)N[C@@H](CCCNC(=N)N)C(=O)N[C@@H](CCCNC(=N)N)C(=O)N[C@H](C(=O)N[C@@H](Cc3c[nH]c4ccccc34)C(=O)N[C@@H](CCCNC(=N)N)C(N)=O)C(C)C)C(C)C)(C2)NC(=O)[C@H](CC(=O)O)NC(=O)[C@H](CC(C)C)NC1=O (single isomer, unassigned) [FP0768a, Ac-P-Q-R7-I-L-D-MC-H-V-R-R-V-W-R-NH2] |
| 100 to 500 | CC[C@H](C)[C@@H]1NC(=O)[C@](C)(NC(=O)[C@H](CCC(N)=O)NC(=O)[C@@H]2CCCN2C(C)=O)CCCCCC=CCOC(=O)N2CC[C@](C(=O)N[C@@H](Cc3c[nH]cn3)C(=O)N[C@H](C(=O)N[C@@H](CCCNC(=N)N)C(=O)N[C@@H](CCCNC(=N)N)C(=O)N[C@H](C(=O)N[C@@H](Cc3c[nH]c4ccccc34)C(=O)N[C@@H](CCCNC(=N)N)C(N)=O)C(C)C)C(C)C)(C2)NC(=O)[C@H](CC(=O)O)NC(=O)[C@H](CC(C)C)NC1=O (single isomer, unassigned) [FP0768c, Ac-P-Q-R7-I-L-D-MC-H-V-R-R-V-W-R-NH2] |
| 500 to 5000 | CC[C@H](C)[C@@H]1NC(=O)[C@](C)(NC(=O)[C@H](CCC(N)=O)NC(=O)[C@@H]2CCCN2C(C)=O)CCCC=CCN(C)CC[C@](C)(C(=O)N[C@@H](Cc2c[nH]cn2)C(=O)N[C@H](C(=O)N[C@@H](CCCNC(=N)N)C(=O)N[C@@H](CCCNC(=N)N)C(=O)N[C@H](C(=O)N[C@@H](Cc2c[nH]c3ccccc23)C(=O)N[C@@H](CCCNC(=N)N)C(N)=O)C(C)C)C(C)C)NC(=O)[C@H](CC(=O)O)NC(=O)[C@H](CC(C)C)NC1=O (single isomer, unassigned) [FP0776a, Ac-P-Q-R5-I-L-D-MG-H-V-R-R-V-W-R-NH2] |
| 500 to 5000 | CC[C@H](C)[C@@H]1NC(=O)[C@](C)(NC(=O)[C@H](CCC(N)=O)NC(=O)[C@@H]2CCCN2C(C)=O)CCCC=CCOC(=O)N(C)CC[C@](C)(C(=O)N[C@@H](Cc2c[nH]cn2)C(=O)N[C@H](C(=O)N[C@@H](CCCNC(=N)N)C(=O)N[C@@H](CCCNC(=N)N)C(=O)N[C@H](C(=O)N[C@@H](Cc2c[nH]c3ccccc23)C(=O)N[C@@H](CCCNC(=N)N)C(N)=O)C(C)C)C(C)C)NC(=O)[C@H](CC(=O)O)NC(=O)[C@H](CC(C)C)NC1=O (single isomer, unassigned) [FP0776c, Ac-P-Q-R5-I-L-D-MG-H-V-R-R-V-W-R-NH2] |
| 500 to 5000 | CC[C@H](C)[C@@H]1NC(=O)[C@](C)(NC(=O)[C@H](CCC(N)=O)NC(=O)[C@@H]2CCCN2C(C)=O)CCCC=CCN(C)CCC[C@](C)(C(=O)N[C@@H](Cc2c[nH]cn2)C(=O)N[C@H](C(=O)N[C@@H](CCCNC(=N)N)C(=O)N[C@@H](CCCNC(=N)N)C(=O)N[C@H](C(=O)N[C@@H](Cc2c[nH]c3ccccc23)C(=O)N[C@@H](CCCNC(=N)N)C(N)=O)C(C)C)C(C)C)NC(=O)[C@H](CC(=O)O)NC(=O)[C@H](CC(C)C)NC1=O (single isomer, unassigned) [FP0777a, Ac-P-Q-R5-I-L-D-MI-H-V-R-R-V-W-R-NH2] |
| 500 to 5000 | CC[C@H](C)[C@@H]1NC(=O)[C@](C)(NC(=O)[C@H](CCC(N)=O)NC(=O)[C@@H]2CCCN2C(C)=O)CCCC=CCOC(=O)N(C)CCC[C@](C)(C(=O)N[C@@H](Cc2c[nH]cn2)C(=O)N[C@H](C(=O)N[C@@H](CCCNC(=N)N)C(=O)N[C@@H](CCCNC(=N)N)C(=O)N[C@H](C(=O)N[C@@H](Cc2c[nH]c3ccccc23)C(=O)N[C@@H](CCCNC(=N)N)C(N)=O)C(C)C)C(C)C)NC(=O)[C@H](CC(=O)O)NC(=O)[C@H](CC(C)C)NC1=O (single isomer, unassigned) [FP0777c, Ac-P-Q-R5-I-L-D-MI-H-V-R-R-V-W-R-NH2] |
| 500 to 5000 | CC[C@H](C)[C@@H]1NC(=O)[C@@](C)(NC(=O)[C@H](CCC(N)=O)NC(=O)[C@@H]2CCCN2C(C)=O)CN(C)C(=O)OCC=CCCC[C@@](C)(C(=O)N[C@@H](Cc2c[nH]cn2)C(=O)N[C@H](C(=O)N[C@@H](CCCNC(=N)N)C(=O)N[C@@H](CCCNC(=N)N)C(=O)N[C@H](C(=O)N[C@@H](Cc2c[nH]c3ccccc23)C(=O)N[C@@H](CCCNC(=N)N)C(N)=O)C(C)C)C(C)C)NC(=O)[C@H](CC(=O)O)NC(=O)[C@H](CC(C)C)NC1=O (single isomer, unassigned) [FP0778c, Ac-P-Q-MD-I-L-D-S5-H-V-R-R-V-W-R-NH2] |
| 500 to 5000 | CC[C@H](C)[C@@H]1NC(=O)[C@@](C)(NC(=O)[C@H](CCC(N)=O)NC(=O)[C@@H]2CCCN2C(C)=O)CCN(C)C(=O)OCC=CCCC[C@@](C)(C(=O)N[C@@H](Cc2c[nH]cn2)C(=O)N[C@H](C(=O)N[C@@H](CCCNC(=N)N)C(=O)N[C@@H](CCCNC(=N)N)C(=O)N[C@H](C(=O)N[C@@H](Cc2c[nH]c3ccccc23)C(=O)N[C@@H](CCCNC(=N)N)C(N)=O)C(C)C)C(C)C)NC(=O)[C@H](CC(=O)O)NC(=O)[C@H](CC(C)C)NC1=O (single isomer, unassigned) [FP0779c, Ac-P-Q-MF-I-L-D-S5-H-V-R-R-V-W-R-NH2] |
| 500 to 5000 | CC[C@H](C)[C@@H]1NC(=O)[C@@](C)(NC(=O)[C@H](CCC(N)=O)NC(=O)[C@@H]2CCCN2C(C)=O)CCCN(C)C(=O)OCC=CCCC[C@@](C)(C(=O)N[C@@H](Cc2c[nH]cn2)C(=O)N[C@H](C(=O)N[C@@H](CCCNC(=N)N)C(=O)N[C@@H](CCCNC(=N)N)C(=O)N[C@H](C(=O)N[C@@H](Cc2c[nH]c3ccccc23)C(=O)N[C@@H](CCCNC(=N)N)C(N)=O)C(C)C)C(C)C)NC(=O)[C@H](CC(=O)O)NC(=O)[C@H](CC(C)C)NC1=O (single isomer, unassigned) [FP0780c, Ac-P-Q-MH-I-L-D-S5-H-V-R-R-V-W-R-NH2] |
| 100 to 500 | CC[C@H](C)[C@@H]1NC(=O)[C@](C)(NC(=O)[C@H](CCC(N)=O)NC(=O)[C@@H]2CCCN2C(C)=O)CCN(C)C(=O)OCC=CCCC[C@](C)(C(=O)N[C@@H](Cc2c[nH]cn2)C(=O)N[C@H](C(=O)N[C@@H](CCCNC(=N)N)C(=O)N[C@@H](CCCNC(=N)N)C(=O)N[C@H](C(=O)N[C@@H](Cc2c[nH]c3ccccc23)C(=O)N[C@@H](CCCNC(=N)N)C(N)=O)C(C)C)C(C)C)NC(=O)[C@H](CC(=O)O)NC(=O)[C@H](CC(C)C)NC1=O (single isomer, unassigned) [FP0782c, Ac-P-Q-MG-I-L-D-R5-H-V-R-R-V-W-R-NH2] |
| 500 to 5000 | CC[C@H](C)[C@@H]1NC(=O)[C@](C)(NC(=O)[C@H](CCC(N)=O)NC(=O)[C@@H]2CCCN2C(C)=O)CCCN(C)CC=CCCC[C@](C)(C(=O)N[C@@H](Cc2c[nH]cn2)C(=O)N[C@H](C(=O)N[C@@H](CCCNC(=N)N)C(=O)N[C@@H](CCCNC(=N)N)C(=O)N[C@H](C(=O)N[C@@H](Cc2c[nH]c3ccccc23)C(=O)N[C@@H](CCCNC(=N)N)C(N)=O)C(C)C)C(C)C)NC(=O)[C@H](CC(=O)O)NC(=O)[C@H](CC(C)C)NC1=O (single isomer, unassigned) [FP0783a, Ac-P-Q-MI-I-L-D-R5-H-V-R-R-V-W-R-NH2] |
| 500 to 5000 | CC[C@H](C)[C@@H]1NC(=O)[C@](C)(NC(=O)[C@H](CCC(N)=O)NC(=O)[C@@H]2CCCN2C(C)=O)CCCN(C)C(=O)OCC=CCCC[C@](C)(C(=O)N[C@@H](Cc2c[nH]cn2)C(=O)N[C@H](C(=O)N[C@@H](CCCNC(=N)N)C(=O)N[C@@H](CCCNC(=N)N)C(=O)N[C@H](C(=O)N[C@@H](Cc2c[nH]c3ccccc23)C(=O)N[C@@H](CCCNC(=N)N)C(N)=O)C(C)C)C(C)C)NC(=O)[C@H](CC(=O)O)NC(=O)[C@H](CC(C)C)NC1=O (single isomer, unassigned) [FP0783c, Ac-P-Q-MI-I-L-D-R5-H-V-R-R-V-W-R-NH2] |

Same assay, conditions: competition with FITC labeled Axin-site probe, 15 nM full-length beta-catenin; read-out: FP EC50

| EC50 [nM] | SMILES |
| --- | --- |
| 1300 | CC[C@H](C)[C@@H]1NC(=O)C2(NC(=O)[C@H](CCC(N)=O)NC(=O)[C@@H]3CCCN3C(C)=O)CN(C2)C(=O)OCC=CCC[C@](C)(C(=O)N[C@@H](Cc2c[nH]cn2)C(=O)N[C@H](C(=O)N[C@@H](CCCNC(=N)N)C(=O)N[C@@H](CCCNC(=N)N)C(=O)N[C@H](C(=O)N[C@@H](Cc2c[nH]c3ccccc23)C(=O)N[C@@H](CCCNC(=N)N)C(N)=O)C(C)C)C(C)C)NC(=O)[C@H](CC(=O)O)NC(=O)[C@H](CC(C)C)NC1=O (single isomer, unassigned) [FP-0721c, Ac-P-Q-Az-I-L-D-R4-H-V-R-R-V-W-R-NH2] |
| 1400 | CC[C@H](C)[C@@H]1NC(=O)C2(NC(=O)[C@H](CCC(N)=O)NC(=O)[C@@H]3CCCN3C(C)=O)CN(C2)C(=O)OCC=CCCC[C@](C)(C(=O)N[C@@H](Cc2c[nH]cn2)C(=O)N[C@H](C(=O)N[C@@H](CCCNC(=N)N)C(=O)N[C@@H](CCCNC(=N)N)C(=O)N[C@H](C(=O)N[C@@H](Cc2c[nH]c3ccccc23)C(=O)N[C@@H](CCCNC(=N)N)C(N)=O)C(C)C)C(C)C)NC(=O)[C@H](CC(=O)O)NC(=O)[C@H](CC(C)C)NC1=O (single isomer, unassigned) [FP-0723c, Ac-P-Q-Az-I-L-D-R5-H-V-R-R-V-W-R-NH2] |
